Like-named read-outs stand apart in the source and are kept apart here. Ends that are not written are not given here. Peptide text beside a SMILES is read from it.
Experiments:
[1] = in vitro; conditions: pH 7.4
[2] = biological target: MAb 11 × 7 (IgG3) anti-D peptide
[3] = biological target: MAb 11 × 2 (IgG3) anti-D peptide
[4] = test system: trypsin; conditions: pH 7.4
[5] = test system: anti-virus serum raised in rabbit and serum against the 91–108 sequence expressed at the surface of Salmonella flagellin; format: binding; conditions: FIGS. 14 and 15
[6] = biological target: I-A^d class II molecules (Mus musculus, UniProt P01921+P04228); format: cell-based
[7] = biological target: I-E^d class II molecules (Mus musculus, UniProt P01904+P01915); format: cell-based
[8] = test system: BALB/c mice; conditions: mouse, in vivo
[9] = test system: peptide-primed T lymphocytes from BALB/c mice; format: cell-based, mouse
[10] = test system: peptide-primed T lymphocytes from BALB/c mice; format: cell-based, mouse; remark: listed apart in the source
[11] = test system: TCR of peptide-primed lymph node T-cells; format: cell-based, mouse
[12] = test system: I-E^d-restricted T-cell hybridomas 45G10, 44B1 and 41C1; format: cell-based, mouse
[13] = test system: sera of patients suffering from various systemic rheumatic diseases; format: binding, human
[14] = test system: HLA-A2; format: binding, human
[15] = test system: IgG antibodies of sera of patients suffering from DLE and SS; format: binding, human
[16] = test system: antibodies of sera of patients bonding to the RIb peptide; format: binding, human
[17] = test system: IgG antibodies of sera of patients suffering from DLE and SS; format: binding, human; remark: listed apart in the source
Procedure: FIG. 6: ELISA reactivity of serum samples originating from patients suffering from DLE and SS with the parent peptide and the analogue RIb 277–291 of Ro52. The sera of the patients are diluted to 1:1,000. Only the antibody activity of the sub-class IgG is measured. The median values of the optical density are indicated. The broken line represents the upper limit of the normal population corresponding to the mean value of the optical density of 20 normal human sera+2 SD (standard deviation) (0.30 OD units).
Sera of female F1 lupous mice (NZB/W) were obtained from S. Batsford (Freibourg, Germany). The human sera originate from patients suffering from disseminated lupus erythematosus (DLE) and Sjögren's syndrome (SS). They were obtained from D. A. Isenberg (London), O. Meyer (Paris) and G. Fournié (Toulouse). The sera of healthy volunteers were obtained from J. L. Pasquali (Strasbourg).
The sera of lupous mice were tested by ELISA as described previously (Benkirane, N., Friede, M., Guichard, G., briand, J. P., Van Regenmortel, M. H. V. and Muller, S. (1993) Antigenicity and immunogenicity of modified synthetic peptides containing D-amino acid residues. J. Biol. Chem., 268: 26279–26285). Only the antibodies of isotype IgG were tested. […] Clin. Exp. Immunol., 95: 397–407) except in the case of the peptide Ro52 277–291, where sensitization of the ELISA plates was carried out at 4° C. instead of 37° C. (see the reasons above). The threshold value for positivity of each test, including that of tests based on the use of retro-inverso peptide analogues, was determined using 20 sera of healthy individuals. The antigenic activity of the peptides is also measured by ELISA using a liquid phase inhibition test.
The 30 sera (positive or negative with respect to the L peptide) were tested in parallel with the RIa and RIb analogues. It was shown that all the sera positive with the L peptide were also positive with the retro-inverso peptides. […] The mean optical density corresponding to the arithmetic mean of all the optical density values, including the values below the threshold line of positivity, is 0.21 (standard deviation 0.25) and 0.51 (standard deviation 0.62) with the L and RIb peptides respectively.

Sequence of I-A^d class II molecules (P04228 24-256 limits assumed): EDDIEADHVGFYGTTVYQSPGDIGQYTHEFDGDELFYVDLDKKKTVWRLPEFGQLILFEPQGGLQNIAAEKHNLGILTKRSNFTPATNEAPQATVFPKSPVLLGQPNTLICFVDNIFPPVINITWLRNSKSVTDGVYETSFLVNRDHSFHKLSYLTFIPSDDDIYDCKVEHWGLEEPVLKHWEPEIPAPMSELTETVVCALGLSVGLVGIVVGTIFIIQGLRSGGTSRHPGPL
Sequence of I-A^d class II molecules (P01921 28-265 limits assumed): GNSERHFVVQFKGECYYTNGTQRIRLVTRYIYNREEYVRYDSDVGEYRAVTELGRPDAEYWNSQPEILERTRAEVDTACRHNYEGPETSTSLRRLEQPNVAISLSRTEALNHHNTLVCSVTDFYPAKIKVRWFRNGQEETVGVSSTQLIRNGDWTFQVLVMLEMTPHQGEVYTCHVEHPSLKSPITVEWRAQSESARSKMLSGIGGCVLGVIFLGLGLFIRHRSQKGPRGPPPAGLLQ
Sequence of I-E^d class II molecules (P01904 26-255 limits assumed): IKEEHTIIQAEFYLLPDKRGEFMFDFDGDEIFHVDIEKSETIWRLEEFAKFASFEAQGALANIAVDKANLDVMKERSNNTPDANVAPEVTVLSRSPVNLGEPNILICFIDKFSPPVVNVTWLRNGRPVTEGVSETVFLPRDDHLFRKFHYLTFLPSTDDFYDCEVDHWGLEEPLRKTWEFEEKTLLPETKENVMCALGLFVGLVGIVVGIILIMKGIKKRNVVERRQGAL
Sequence of I-E^d class II molecules (P01915 27-264 limits assumed): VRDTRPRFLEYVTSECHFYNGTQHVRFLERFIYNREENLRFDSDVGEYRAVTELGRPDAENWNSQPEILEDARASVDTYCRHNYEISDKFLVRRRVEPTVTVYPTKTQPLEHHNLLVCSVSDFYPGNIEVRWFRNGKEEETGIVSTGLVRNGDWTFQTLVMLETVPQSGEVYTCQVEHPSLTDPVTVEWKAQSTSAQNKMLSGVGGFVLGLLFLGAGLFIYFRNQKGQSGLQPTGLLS

CC[C@@H](C)[C@@H](NC(=O)CNC(=O)CNC(=O)[C@H](N)CS)C(=O)N[C@H](CCCNC(=N)N)C(=O)NCC(=O)N[C@H](CCC(=O)O)C(=O)N[C@H](CCCNC(=N)N)C(=O)N[C@H](C)C(=O)O [D peptide] (HELM PEPTIDE1{[dC].G.G.[dI].[dR].G.[dE].[dR].[dA]}$$$$V2.0)
half-life [1]: 1.22 h
BIAcore (Ka M^−1) affinity constant at equilibrium [2]: 1e+07 M⁻¹
Ka (affinity constant at equilibrium) [2]: 1.2e+07 M⁻¹
BIAcore (Ka M^−1) affinity constant at equilibrium [3]: 1e+10 M⁻¹
Ka (affinity constant at equilibrium) [3]: 13,000 ×10^6 M^−1
time to complete loss of immunological activity on digestion with immobilized trypsin [4]: > 240 min

Ac-CKAFSNSYPYDVPDYASL-NH2 [double blocked L-peptide *C18L*]
recognition by the tested antibodies (ELISA) [5]: substantially recognized in the same way

Ac-YFMYSKLRVQKSC-NH2 [L-peptide 435–446 of γ2a^b]
reduction of the IL-2 production level [6]: > 88%
inhibition (of IL-2 production / binding of cI 12–26) [7]: Up to 84%
cross-reaction in ELISA of antibodies raised against the peptide with the counterpart (L or retro-inverso) peptide [8]: showed no cross-reaction
IL-2 production of T-lymphocytes of mice immunized with parent peptide 435–446 of γ2a^b, stimulated by the peptide [9]: only observed after stimulation by the parent peptide
maximal IL-2 secretion measured using CTL-L cells in the presence of Con A [9]: 21 565 cpm
proliferation and IL-2 production of lymph node cells of mice immunized with retro-inverso analogue 435–446 of γ2a^b, stimulated by the peptide [10]: proliferation of lymph node cells and IL-2 production were observed
proliferation of T-lymphocytes of mice immunized with parent peptide 435–446 of γ2a^b, stimulated by the peptide [10]: induced a proliferative T-cell response

CH3CO-(D)Cys-(D)Ser-(D)Lys-(D)Gln-(D)Val-(D)Arg-(D)Leu-(D)Lys-(D)Ser-(D)Tyr-(D)Met-(D)Phe-(D)Tyr-NH2 [retro-inverso peptide 435–446 of γ2a^b]
inhibition, in words [6]: almost no inhibition
reduction of the IL-2 production [6]: about 35%
inhibition (of IL-2 production / binding of cI 12–26) [7]: ≤ 48%
IL-2 production of T-lymphocytes of mice immunized with parent peptide 435–446 of γ2a^b, stimulated by the peptide [9]: failed to induce detectable IL-2 secretion
maximal IL-2 secretion measured using CTL-L cells in the presence of Con A [9]: 26 445 cpm

CH3CO-Lys-Leu-Phe-AI a-Val-Trp-Lys-Ile-Thr-Tyr-Lys-Asp-Thr-NH2 [L-peptide 103–115 of poliovirus VP1]
binding to I-A^d transfected fibroblasts, in words [6]: Neither the L- nor the retro-inverso peptides bound
inhibition (of IL-2 production / binding of cI 12–26) [7]: up to 77%
IL-2 production by T-cells primed with the retro-inverso analogue 103–115 in response to the peptide [11]: significantly increased
IL-2 production of T-cell hybridomas stimulated by the peptide [12]: produced high levels of IL-2
cross-reaction in ELISA of antibodies raised against the peptide with the counterpart (L or retro-inverso) peptide [8]: cross-reacted, although less efficiently
IL-2 production of T-lymphocytes of mice immunized with retro-inverso analogue 103–115, in response to the peptide [9]: IL-2 production were also found
IL-2 production of lymph node cells of mice immunized with parent peptide 103–115, stimulated in vitro by the peptide [9]: produced significant levels of IL-2
maximal IL-2 secretion measured using CTL-L cells in the presence of Con A [9]: 10 990 cpm
proliferation of T-lymphocytes of mice immunized with retro-inverso analogue 103–115, in response to the peptide [10]: a good proliferative response
proliferation of lymph node cells of mice immunized with parent peptide 103–115, stimulated in vitro by the peptide [10]: proliferated

CH3CO-Ser → Ala → Pro → Ala → Thr → Gly → Gly → Val → Lys → Lys → Pro → His → Arg → Tyr → Arg → Pro → Gly → Thr-NH2 [blocked L peptide 28–45]
number of positive sera [13]: 20
number of positive sera DLE [13]: 12
percentage of positive sera [13]: 29%

GILGFVFAL [Ala 65]
fixing to the molecule HLA-A2 (fluorescence), in words [14]: very active

GLLGFVFTL [Leu 59]
fixing to the molecule HLA-A2 (fluorescence), in words [14]: very active

H2 N-D-Val ← D-Cys ← D-Glu ← D-Lys ← D-Leu ← D-Cys ← D-Asn ← D-Glu ← D-Lys ← D-Leu ← D-Leu ← D-Lys ← D-Lys ← D-Ala ← D-Arg ← D-Ile ← D-His ← D-Pro ← D-Phe ← D-His ← D-Ile-COCH3 [Blocked RI peptide 304–324 of Ro60]
mean optical density [15]: 1.15
number of sera which reacted [15]: 15/20
percentage of sera which reacted [15]: 75%

H2N-Gly ← D-Leu ← D-Lys ← D-Lys ← D-Nle ← D-Leu ← D-Arg ← D-Thr ← D-Cys ← D-Ala ← D-Val ← D-His ← D-Ile ← D-Thr ← (R,S)-mLeu-OH [RIb peptide]
inhibition of bonding of the antibodies to the RIb peptide [16]: up to 79.2%
sera of patients tested in which anti-peptide 277–291 antibodies are detected ([17]; 30 sera of DLE and SS patients): 50%
mean optical density ([17]; arithmetic mean of all 30 sera, peptide 277–291 of Ro52): 0.51
number of sera which reacted among the 25 sera negative with the L peptide ([17]; threshold 0.30 OD units): 10

H → Gly → Leu → Lys → Lys→ Nle → Leu → Arg → Thr → Cys → Ala → Val → His → Ile → Thr → Leu → OH [L peptide 277–291]
inhibition of bonding of the antibodies to the RIb peptide [16]: up to 75.8%

H-CKAFSNSYPYDVPDYASL-OH [parent L-peptide C18L]
recognition by the tested antibodies (ELISA) [5]: substantially recognized in the same way

H-Ser → Ala → Pro → Ala → Thr → Gly → Gly → Val → Lys → Lys → Pro → His → Arg → Tyr → Arg → Pro → Gly → Thr-OH [natural L peptide 28–45]
number of positive sera [13]: 12
number of positive sera DLE [13]: 8
percentage of positive sera [13]: 17.4%

[gLeu^60–mGly^61] M58–66 [GG5]
fixing to the molecule HLA-A2 (fluorescence), in words [14]: do not bond to the HLA-A2 molecule
